Measured values taken from publication PMC9414676, “Experimental Studies Indicate That ST-2223, the Antagonist of Histamine H3 and Dopamine D2/D3 Receptors, Restores Social Deficits and Neurotransmission Dysregulation in Mouse Model of Autism” (Pharmaceuticals, 2022).

Columns and labels:
[1] = tested on: acetylcholine levels in BTBR mice brain; assay: Acetylcholine levels by LC-MS/MS in brain regions; format: in vivo; design: key to Acetylcholine level: ↔: No significant alterations; ↑: significant increase; ↑↑: additional significant increase vs. ST-2223-treated mice; ↓: significant decrease; settings: for Acetylcholine level: ARP 1 mg/kg i.p. chronic, vs VEH-treated BTBR mice
Experimental: (§1) All the mice were randomly divided into nine groups of 5–7 mice each. The mice were injected intraperitonially once daily for 21 days with different doses of ST2223 (2.5, 5, and 10 mg/kg, i.p.), ARP 1 mg/kg or vehicle (1% DMSO in 0.9% normal saline). Group I, B6 mice were injected with vehicle served as control. Group II, BTBR mice were treated with vehicle. Groups III–V, BTBR mice received i.p. injections of different doses of ST2223 (2.5, 5, and 10 mg/kg, i.p.), respectively. Group VI, BTBR mice were injected with ARP (1 mg/kg, i.p.). For abrogation studies, Group VII, BTBR mice were treated with ST2223 (5 mg/kg, i.p.) along with RAM (10 mg/kg, i.p.). Group VIII, B6 mice were co-injected with vehicle and RAM (10 mg/kg, i.p). All treatments and vehicle (VEH) were administered 30–45 min before each behavioral test. The doses of these drugs were selected based on previous reports. Behavioral testing was performed between 9:00 am and 3:00 pm in an order randomized by group and in the following sequence: social approach test (SAT) and open field locomotor test (OFL). The chronic treatment started one week before the behavioral test and was continued for a total of 21 days as described above (Figure 7). Following behavioral tests, i.e., on day 21 of systemic treatment, five of the animals were sacrificed. The animals were deeply anesthetized with pentobarbital (40 mg/kg, i.p., body weight). To wash out the blood, cardiac perfusion was carried out using 0.01 M phosphate-buffered saline (PBS) at pH 7.4. The brains were quickly removed and placed on an ice plate, where the cerebellum, hippocampus, prefrontal cortex, and striatum were excised from the brain and snap-frozen in liquid nitrogen for later LC-MS/MS analysis.
(§2) Perfusion was done on anesthetized animals using 1X PBS as described previously. Different regions of the brain were snap frozen. Frozen tissues were then weighed and homogenized in a 10-fold volume of acetonitrile. For 50mg of tissue, 500 µL of acetonitrile and Internal standard mix were added and homogenized. Homogenates were centrifuged at 15,000 rcf for 15 min at 4 °C. Tissue levels of dopamine, acetylcholine, histamine, and their metabolites were assessed using LC-MS/MS. LC-MS/MS analysis was conducted utilizing Waters BEH C18 COLUMN (2.1 × 100 mm, 1.7 µm) using Waters Acquity UPLC Binary Solvent Manager and FTN Sample Manager. The system was run in gradient mode with mobile phase A consisting of LC-MS GRADE WATER + 0.1% FORMIC ACID and mobile phase B consisting of 100% ACETONITRILE. Mobile phase was duly filtered through 0.2 µm filter and degassed ultrasonically for 15 min prior to use. Separations were performed at room temperature with 0.3 mL/min flow rate gradient starting with 90% of A for up to 0.5 min. Then, % of A was decreased gradually until it reached 20% at 2.5 min after which at 3 min %A was brought back to the initial condition and left for equilibration for 2 more minutes before the next injection (total 5 min run time). The injection volume was kept at 1 µL. Mass spectrometric detection was performed in multiple reaction monitoring (MRM) mode with positive electrospray ionization (ESI+) on Xevo TQS mass spectrometer (Waters, Milford, MA) equipped with an electrospray ionization (ESI) source and triple quadrupole mass analyzer. MRM transitions and instrument parameters were set by tuning the instrument by infusing each analyte. MRM transitions taken for quantification were 146.2 > 87.1 for Acetylcholine, 112.2 > 95.2 for Histamine, 154.1 > 137.2 for Dopamine, 150.2 > 91.3 for Acetylcholine D4, and […] > 99.3 for Histamine D4. Capillary Voltage, Source Offset, Source Temperature, De solvation Temperature, Cone Gas Flow, De solvation Gas Flow, Collision Gas Flow, Nebulizer Gas Flow were set as 3.0 (kV), 60.0 (V), 150 (°C), 550 (°C), 150 (L/Hr), 1000 (L/Hr), 0.13 (mL/min), and 7 (Bar), correspondingly. […]

BTBR mice [2] = assay: Social approach test (SAT), social novelty preference (novel mouse vs familiar mouse); format: in vivo; settings: ARP 1 mg/kg i.p. chronic, p < 0.001
Experimental: as §1
The social approach test (SAT) was performed using an automated three-chamber device (EthoVision® Software, Noldus, The Netherlands) as previously described. The transparent polycarbonate chamber is rectangular and is composed of three interconnected partitions (homemade), which are separated by two sliding doors. […] For 10 min, the test mouse was allowed to explore all three chambers and cups, and the time spent interacting with NO and NM (sniffing) was automatically recorded by EthoVision® Software. […] The study mouse is allowed to explore the three chambers for 10 min, and the time spent for interacting with both mice was automatically recorded, to assess social novelty preference. […] To allow the direct comparison of social behavior between the treated groups, the sociability index (SI) and social novelty index (SNI) were calculated with the following formula, as previously described: SI=(Time exploring NM−Time exploring NO)/(Time exploring NM+Time exploring NO) SNI=(Time exploring NM−Time exploring FM)/(Time exploring NM+Time exploring FM)

[3] = tested on: dopamine levels in BTBR mice brain; assay: Dopamine levels by LC-MS/MS in brain regions; format: in vivo; design: key to Dopamine level: ↔: No significant alterations; ↑: significant increase; ↑↑: additional significant increase vs. ST-2223-treated mice; ↓: significant decrease; settings: ARP 1 mg/kg i.p. chronic, vs VEH-treated BTBR mice
Experimental: as §1, §2

BTBR mice [4] = assay: Social approach test (SAT), sociability (novel mouse vs novel object); format: in vivo; settings: ARP 1 mg/kg i.p. chronic
Experimental: as §1
The social approach test (SAT) was performed using an automated three-chamber device (EthoVision® Software, Noldus, The Netherlands) as previously described. The transparent polycarbonate chamber is rectangular and is composed of three interconnected partitions (homemade), which are separated by two sliding doors. In brief, after 10 min of habituation, the study mouse was placed in the central chamber with the doors opened, and the mouse was given the choice to interact with either an empty plastic cup located in one side chamber, referred to as a novel object (NO), or a similar plastic cup with an unfamiliar mouse inside it located in the opposite chamber, referred to as a novel mouse (NM), which was matched in age, sex, and strain with test mouse. To avoid innate side preferences, the plastic cup for NO and NM were randomly placed in either chamber and the placement was changed between studies and between mice. For 10 min, the test mouse was allowed to explore all three chambers and cups, and the time spent interacting with NO and NM (sniffing) was automatically recorded by EthoVision® Software. Immediately after this session, a novel mouse is kept in the empty cup and is referred to as novel mouse (NM), and the mouse in the other cup from the earlier session is referred to as familiar mouse (FM). The study mouse is allowed to explore the three chambers for 10 min, and the time spent for interacting with both mice was automatically recorded, to assess social novelty preference. Eight groups of 7 mice/group were used for the SAT. To allow the direct comparison of social behavior between the treated groups, the sociability index (SI) and social novelty index (SNI) were calculated with the following formula, as previously described: SI=(Time exploring NM−Time exploring NO)/(Time exploring NM+Time exploring NO) SNI=(Time exploring NM−Time exploring FM)/(Time exploring NM+Time exploring FM)

[5] = tested on: prefrontal cortex of B6 mice; design: method as in PMID 16023290; settings: 0.3 mg/kg of ARP; cited from earlier work
[6] = tested on: histamine levels in BTBR mice brain; assay: Histamine levels by LC-MS/MS in brain regions; format: in vivo; design: key to Histamine level: ↔: No significant alterations; ↑: significant increase; ↑↑: additional significant increase vs. ST-2223-treated mice; ↓: significant decrease; settings: ARP 1 mg/kg i.p. chronic, vs VEH-treated BTBR mice
Experimental: as §1, §2

BTBR mice [7] = assay: Open field locomotor test (OFL), anxiety-like behavior and locomotion; format: in vivo; settings: ARP 1 mg/kg i.p. chronic
Experimental: as §1
Open field locomotor test (OFL) systematically assesses exploratory activity based on subjecting an animal to an unfamiliar environment whose escape is prevented by surrounding walls. It is a model of anxiety-like behavior, suitable for assessing motor activity as a reaction to an unknown environment, i.e., locomotion motivated by exploration. Both general locomotor activity and anxiety-related behaviors were assessed as the mice were placed individually inside an open field arena (45 × 45 × 30 cm) and were allowed to move freely for 10 min [80]. Mice were introduced into the center area of the arena (23 × 23 cm) and given 5 min habituation before actual behaviors recording. The overall distance moved inside the complete arena and time spent in the center and periphery was recorded for 10 min using CCD camera-assisted motion tracking equipment and software program (EthoVision 3.1, Noldus Information Technology, The Netherlands). Measurements obtained included total distance traveled and center and periphery time spent for […]. After each testing sessions, chambers we cleaned with 70% ethanol, and enough time was allowed for ethanol evaporation and odor dissipation. When evaluating the results, more time spent in the center indicated low levels of anxiety-like behaviors and total distance travelled represented locomotor activity.

O=C1CCc2ccc(OCCCCN3CCN(c4cccc(Cl)c4Cl)CC3)cc2N1 [ARP, aripiprazole, reference compound]
acetylcholine levels ([1]; ARP 1 mg/kg chronic, p < 0.05): signified increase in the levels of acetylcholine in the prefrontal cortex, cerebellum, and striatum tissues | Acetylcholine level ([1]; Cerebellum): ↑ ^b | Acetylcholine level ([1]; Hippocampus): ↔ | Acetylcholine level ([1]; Prefrontal cortex): ↑ ^b | Acetylcholine level ([1]; Striatum): ↑ ^b | preference to novel mouse (NM) over familiar mouse (FM) vs VEH-treated BTBR mice (BTBR mice [2]): enhanced preference to stranger NM over FM | Dopamine level ([3]; Cerebellum): ↓^b | Dopamine level ([3]; Hippocampus): ↓^b | Dopamine level ([3]; Prefrontal cortex): ↔ | sociability, time exploring NM compared to NO (BTBR mice [4]): markedly increased sociability | exploring time spent with NM vs VEH-treated BTBR mice (BTBR mice [4]; p < 0.001): significantly improved exploring time spent with NM | DA levels in dialysate [5]: significant increase of DA levels in dialysate | levels of histamine in brain regions ([6]; p < 0.05): increased the levels of histamine in the cerebellum, striatum, and hippocampus | Histamine level ([6]; Cerebellum): ↑ ^b | Histamine level ([6]; Hippocampus): ↑ ^b | Histamine level ([6]; Prefrontal cortex): ↔ | abnormal anxiety observed by BTBR mice (BTBR mice [7]): failed to restore the abnormal anxiety | time spent in the periphery (BTBR mice [7]): no group differences | total distance travelled vs VEH-treated BTBR mice (BTBR mice [7]; p < 0.01): significantly decreased the total distance travelled
